{"source": "patent US20100305098A1", "about": "“METHODS OF USE” (priority 2007, published 2010)", "key": {"[1]": {"target": "T1, Prostanoid CRTH2 (Homo sapiens, UniProt Q9Y5Y4)", "T1 construct": "purchased MDS Pharma (outsourced assay)", "T1 sequence (Q9Y5Y4 whole entry)": "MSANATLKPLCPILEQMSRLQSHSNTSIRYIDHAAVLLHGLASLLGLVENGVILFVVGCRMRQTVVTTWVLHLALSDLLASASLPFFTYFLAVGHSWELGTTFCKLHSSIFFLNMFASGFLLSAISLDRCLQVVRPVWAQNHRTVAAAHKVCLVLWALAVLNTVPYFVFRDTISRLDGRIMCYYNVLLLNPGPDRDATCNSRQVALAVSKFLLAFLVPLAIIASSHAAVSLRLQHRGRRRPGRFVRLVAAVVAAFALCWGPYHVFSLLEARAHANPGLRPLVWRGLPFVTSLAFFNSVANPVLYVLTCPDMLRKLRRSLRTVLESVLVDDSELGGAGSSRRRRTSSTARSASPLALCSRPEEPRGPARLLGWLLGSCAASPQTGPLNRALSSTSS", "test": "Competitive radioligand binding (MDS Pharma)"}, "[2]": {"target": "T2, Prostanoid, Thromboxane A2 (TP) (Homo sapiens, UniProt P21731)", "T2 construct": "purchased MDS Pharma (outsourced assay)", "T2 sequence (P21731 whole entry)": "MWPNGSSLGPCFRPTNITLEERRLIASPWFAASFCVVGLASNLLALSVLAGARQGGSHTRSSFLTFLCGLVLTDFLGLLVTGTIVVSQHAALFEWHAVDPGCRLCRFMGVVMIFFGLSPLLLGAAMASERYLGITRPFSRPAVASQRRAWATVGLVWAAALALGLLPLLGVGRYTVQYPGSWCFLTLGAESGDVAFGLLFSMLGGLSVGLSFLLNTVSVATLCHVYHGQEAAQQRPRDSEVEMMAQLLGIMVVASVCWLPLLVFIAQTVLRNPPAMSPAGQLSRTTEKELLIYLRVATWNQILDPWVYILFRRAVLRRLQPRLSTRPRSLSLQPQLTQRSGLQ", "test": "Competitive radioligand binding (MDS Pharma)"}, "[3]": {"target": "T3, 5-HT1B (Homo sapiens, UniProt P28222)", "T3 construct": "purchased Millipore (outsourced screen)", "test": "FLIPR functional screen", "format": "cell-based", "conditions": "antagonist mode"}, "[4]": {"target": "T4, A2B (Homo sapiens, UniProt P29275)", "T4 construct": "purchased Millipore (outsourced screen)", "test": "FLIPR functional screen", "format": "cell-based", "conditions": "antagonist mode"}, "[5]": {"target": "T5, ADRA1A (Homo sapiens, UniProt P35348)", "T5 construct": "purchased Millipore (outsourced screen)", "T5 sequence (P35348 whole entry)": "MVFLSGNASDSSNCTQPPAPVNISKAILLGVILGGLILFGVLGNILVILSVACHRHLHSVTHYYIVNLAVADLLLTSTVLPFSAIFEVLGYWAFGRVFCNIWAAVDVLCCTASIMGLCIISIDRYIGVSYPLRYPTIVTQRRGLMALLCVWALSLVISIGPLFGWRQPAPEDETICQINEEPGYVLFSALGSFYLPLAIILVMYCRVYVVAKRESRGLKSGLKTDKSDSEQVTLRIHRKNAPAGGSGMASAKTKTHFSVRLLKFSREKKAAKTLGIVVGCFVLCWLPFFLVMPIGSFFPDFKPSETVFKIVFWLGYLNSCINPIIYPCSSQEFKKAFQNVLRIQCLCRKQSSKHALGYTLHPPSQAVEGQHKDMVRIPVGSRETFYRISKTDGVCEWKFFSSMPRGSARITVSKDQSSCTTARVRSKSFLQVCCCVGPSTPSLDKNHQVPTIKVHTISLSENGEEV", "test": "FLIPR functional screen", "format": "cell-based", "conditions": "antagonist mode"}, "[6]": {"target": "T6, AT1 (Homo sapiens, UniProt P30556)", "T6 construct": "purchased Millipore (outsourced screen)", "test": "FLIPR functional screen", "format": "cell-based", "conditions": "antagonist mode"}, "[7]": {"target": "T7, BLT1 (Homo sapiens, UniProt Q15722)", "T7 construct": "Millipore", "test": "FLIPR functional screen", "format": "cell-based", "conditions": "antagonist mode"}, "[8]": {"target": "T8, CAS (Homo sapiens, UniProt P41180)", "T8 construct": "Millipore", "test": "FLIPR functional screen", "format": "cell-based", "conditions": "antagonist mode"}, "[9]": {"target": "T9, CCR1 (Homo sapiens, UniProt P32246)", "T9 construct": "Millipore", "test": "FLIPR functional screen", "format": "cell-based", "conditions": "antagonist mode"}, "[10]": {"target": "T10, CCR10 (Homo sapiens, UniProt P46092)", "T10 construct": "Millipore", "T10 sequence (P46092 whole entry)": "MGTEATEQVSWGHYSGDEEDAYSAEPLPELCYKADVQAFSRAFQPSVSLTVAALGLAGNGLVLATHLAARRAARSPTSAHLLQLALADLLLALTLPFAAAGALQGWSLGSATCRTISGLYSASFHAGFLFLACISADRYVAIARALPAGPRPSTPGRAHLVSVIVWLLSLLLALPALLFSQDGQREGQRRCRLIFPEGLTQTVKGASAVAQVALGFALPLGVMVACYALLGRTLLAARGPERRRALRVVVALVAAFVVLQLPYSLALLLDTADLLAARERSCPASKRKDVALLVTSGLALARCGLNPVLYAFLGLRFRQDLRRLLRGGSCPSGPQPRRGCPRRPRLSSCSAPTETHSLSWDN", "test": "FLIPR functional screen", "format": "cell-based", "conditions": "antagonist mode"}, "[11]": {"target": "T11, CCR3 (Homo sapiens, UniProt P51677)", "T11 construct": "Millipore", "test": "FLIPR functional screen", "format": "cell-based", "conditions": "antagonist mode"}, "[12]": {"target": "T12, CXCR1 (Homo sapiens, UniProt P25024)", "T12 construct": "Millipore", "test": "FLIPR functional screen", "format": "cell-based", "conditions": "antagonist mode"}, "[13]": {"target": "T13, D5 (Homo sapiens, UniProt P21918)", "T13 construct": "Millipore", "test": "FLIPR functional screen", "format": "cell-based", "conditions": "antagonist mode"}, "[14]": {"target": "T14, DP (Homo sapiens, UniProt Q13258)", "T14 construct": "Millipore", "test": "FLIPR functional screen", "format": "cell-based", "conditions": "antagonist mode"}, "[15]": {"target": "T15, ETA (Homo sapiens, UniProt P25101)", "T15 construct": "Millipore", "test": "FLIPR functional screen", "format": "cell-based", "conditions": "antagonist mode"}, "[16]": {"target": "T16, ETB (Homo sapiens, UniProt P24530)", "T16 construct": "Millipore", "test": "FLIPR functional screen", "format": "cell-based", "conditions": "antagonist mode"}, "[17]": {"target": "T17, FP (Homo sapiens, UniProt P43088)", "T17 construct": "Millipore", "test": "FLIPR functional screen", "format": "cell-based", "conditions": "antagonist mode"}, "[18]": {"target": "T18, GIPR (Homo sapiens, UniProt P48546)", "T18 construct": "Millipore", "T18 sequence (P48546 22-466, species assumed)": "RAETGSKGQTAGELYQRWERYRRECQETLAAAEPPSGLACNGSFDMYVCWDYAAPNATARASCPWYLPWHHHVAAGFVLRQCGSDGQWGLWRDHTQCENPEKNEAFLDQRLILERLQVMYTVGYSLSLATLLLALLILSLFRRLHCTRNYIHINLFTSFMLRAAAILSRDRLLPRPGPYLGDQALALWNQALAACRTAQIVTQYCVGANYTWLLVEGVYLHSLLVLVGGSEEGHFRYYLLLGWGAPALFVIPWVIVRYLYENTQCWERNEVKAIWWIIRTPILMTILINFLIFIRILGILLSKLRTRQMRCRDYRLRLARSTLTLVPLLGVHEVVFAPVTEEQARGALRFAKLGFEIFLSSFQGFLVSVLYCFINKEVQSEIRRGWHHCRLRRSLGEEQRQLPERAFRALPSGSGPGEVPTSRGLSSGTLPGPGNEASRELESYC", "test": "FLIPR functional screen", "format": "cell-based", "conditions": "antagonist mode"}, "[19]": {"target": "T19, GPR40 (Homo sapiens, UniProt O14842)", "T19 construct": "Millipore", "T19 sequence (O14842 whole entry, species assumed)": "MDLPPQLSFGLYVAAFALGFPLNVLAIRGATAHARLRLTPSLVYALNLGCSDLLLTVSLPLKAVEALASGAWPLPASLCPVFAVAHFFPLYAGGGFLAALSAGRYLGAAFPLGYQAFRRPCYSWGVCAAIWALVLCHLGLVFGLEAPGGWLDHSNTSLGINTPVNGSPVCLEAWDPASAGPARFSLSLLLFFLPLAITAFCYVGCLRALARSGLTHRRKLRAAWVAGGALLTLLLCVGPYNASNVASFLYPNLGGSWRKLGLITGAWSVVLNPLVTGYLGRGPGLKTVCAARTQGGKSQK", "test": "FLIPR functional screen", "format": "cell-based", "conditions": "antagonist mode"}, "[20]": {"target": "T20, H1 (Homo sapiens, UniProt P35367)", "T20 construct": "Millipore", "test": "FLIPR functional screen", "format": "cell-based", "conditions": "antagonist mode"}, "[21]": {"target": "T21, H2 (Homo sapiens, UniProt P25021)", "T21 construct": "Millipore", "test": "FLIPR functional screen", "format": "cell-based", "conditions": "antagonist mode"}, "[22]": {"target": "T22, M2 (Homo sapiens, UniProt P08172)", "T22 construct": "Millipore", "test": "FLIPR functional screen", "format": "cell-based", "conditions": "antagonist mode"}, "[23]": {"target": "T23, M3 (Homo sapiens, UniProt P20309)", "T23 construct": "Millipore", "test": "FLIPR functional screen", "format": "cell-based", "conditions": "antagonist mode"}, "[24]": {"target": "T24, NK1 (Homo sapiens, UniProt P25103)", "T24 construct": "Millipore", "T24 sequence (P25103 whole entry)": "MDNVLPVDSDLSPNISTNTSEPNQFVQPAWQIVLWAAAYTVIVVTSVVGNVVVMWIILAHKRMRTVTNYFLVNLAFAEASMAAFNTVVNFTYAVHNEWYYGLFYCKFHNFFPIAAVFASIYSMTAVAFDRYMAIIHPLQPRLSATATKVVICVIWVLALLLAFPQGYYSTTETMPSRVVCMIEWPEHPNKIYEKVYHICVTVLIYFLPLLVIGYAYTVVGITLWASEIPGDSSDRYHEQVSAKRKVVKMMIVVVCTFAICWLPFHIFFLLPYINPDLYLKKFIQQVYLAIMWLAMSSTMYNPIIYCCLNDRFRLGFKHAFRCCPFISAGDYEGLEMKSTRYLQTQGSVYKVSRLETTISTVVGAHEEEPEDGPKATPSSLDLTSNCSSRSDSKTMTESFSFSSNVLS", "test": "FLIPR functional screen", "format": "cell-based", "conditions": "antagonist mode"}, "[25]": {"target": "T25, OPRD1 (Homo sapiens, UniProt P41143)", "T25 construct": "Millipore", "T25 sequence (P41143 whole entry, species assumed)": "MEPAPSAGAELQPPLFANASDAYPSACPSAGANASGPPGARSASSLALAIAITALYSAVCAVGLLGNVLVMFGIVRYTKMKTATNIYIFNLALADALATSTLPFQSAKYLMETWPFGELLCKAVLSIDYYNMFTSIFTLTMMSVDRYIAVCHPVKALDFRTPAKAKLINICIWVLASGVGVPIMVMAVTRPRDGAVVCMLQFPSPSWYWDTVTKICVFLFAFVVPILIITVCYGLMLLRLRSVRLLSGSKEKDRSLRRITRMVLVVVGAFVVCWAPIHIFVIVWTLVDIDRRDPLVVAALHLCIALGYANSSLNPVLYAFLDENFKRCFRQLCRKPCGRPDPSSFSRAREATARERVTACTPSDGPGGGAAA", "test": "FLIPR functional screen", "format": "cell-based", "conditions": "antagonist mode"}, "[26]": {"target": "T26, OPRK1 (Homo sapiens, UniProt P41145)", "T26 construct": "Millipore", "test": "FLIPR functional screen", "format": "cell-based", "conditions": "antagonist mode"}, "[27]": {"target": "T27, OT (Homo sapiens, UniProt P30559)", "T27 construct": "Millipore", "T27 sequence (P30559 whole entry)": "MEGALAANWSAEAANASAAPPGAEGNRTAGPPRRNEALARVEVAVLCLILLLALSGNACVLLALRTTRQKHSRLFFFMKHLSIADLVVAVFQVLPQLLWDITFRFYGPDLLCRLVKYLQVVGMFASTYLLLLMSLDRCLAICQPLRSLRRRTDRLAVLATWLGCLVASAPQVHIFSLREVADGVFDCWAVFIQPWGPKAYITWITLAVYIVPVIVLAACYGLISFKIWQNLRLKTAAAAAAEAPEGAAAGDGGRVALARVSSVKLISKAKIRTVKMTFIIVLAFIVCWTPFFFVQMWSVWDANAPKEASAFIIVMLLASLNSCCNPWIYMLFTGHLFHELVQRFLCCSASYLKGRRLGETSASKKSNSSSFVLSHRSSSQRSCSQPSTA", "test": "FLIPR functional screen", "format": "cell-based", "conditions": "antagonist mode"}, "[28]": {"target": "T28, OX2 (Homo sapiens, UniProt O43614)", "T28 construct": "Millipore", "T28 sequence (O43614 whole entry)": "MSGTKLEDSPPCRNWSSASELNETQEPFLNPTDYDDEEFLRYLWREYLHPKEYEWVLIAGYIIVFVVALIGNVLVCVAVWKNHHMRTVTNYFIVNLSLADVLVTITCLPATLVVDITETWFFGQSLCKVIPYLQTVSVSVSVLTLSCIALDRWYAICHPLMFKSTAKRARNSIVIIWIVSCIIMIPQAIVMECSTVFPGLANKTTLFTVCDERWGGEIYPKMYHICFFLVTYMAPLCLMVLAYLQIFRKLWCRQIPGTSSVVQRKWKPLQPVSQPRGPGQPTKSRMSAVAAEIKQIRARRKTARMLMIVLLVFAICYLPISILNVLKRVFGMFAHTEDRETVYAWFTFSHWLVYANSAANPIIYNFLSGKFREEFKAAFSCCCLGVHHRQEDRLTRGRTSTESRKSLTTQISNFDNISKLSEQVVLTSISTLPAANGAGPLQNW", "test": "FLIPR functional screen", "format": "cell-based", "conditions": "antagonist mode"}, "[29]": {"target": "T29, PK2 (Homo sapiens, UniProt Q8NFJ6)", "T29 construct": "Millipore", "test": "FLIPR functional screen", "format": "cell-based", "conditions": "antagonist mode"}, "[30]": {"target": "T30, S1P2 (Homo sapiens, UniProt O95136)", "T30 construct": "Millipore", "test": "FLIPR functional screen", "format": "cell-based", "conditions": "antagonist mode"}, "[31]": {"target": "T31, S1P5 (Homo sapiens, UniProt Q9H228)", "T31 construct": "Millipore", "test": "FLIPR functional screen", "format": "cell-based", "conditions": "antagonist mode"}, "[32]": {"target": "T32, SECRETIN (Homo sapiens, UniProt P47872)", "T32 construct": "Millipore", "test": "FLIPR functional screen", "format": "cell-based", "conditions": "antagonist mode"}, "[33]": {"target": "T33, SST5 (Homo sapiens, UniProt P35346)", "T33 construct": "Millipore", "test": "FLIPR functional screen", "format": "cell-based", "conditions": "antagonist mode"}, "[34]": {"target": "T34, TP (Homo sapiens, UniProt P21731)", "T34 construct": "Millipore", "T34 sequence (P21731 whole entry)": "as the sequence (P21731 whole entry) above", "test": "FLIPR functional screen", "format": "cell-based", "conditions": "antagonist mode"}, "[35]": {"target": "T35, TRH (Homo sapiens, UniProt P34981)", "T35 construct": "Millipore", "T35 sequence (P34981 whole entry)": "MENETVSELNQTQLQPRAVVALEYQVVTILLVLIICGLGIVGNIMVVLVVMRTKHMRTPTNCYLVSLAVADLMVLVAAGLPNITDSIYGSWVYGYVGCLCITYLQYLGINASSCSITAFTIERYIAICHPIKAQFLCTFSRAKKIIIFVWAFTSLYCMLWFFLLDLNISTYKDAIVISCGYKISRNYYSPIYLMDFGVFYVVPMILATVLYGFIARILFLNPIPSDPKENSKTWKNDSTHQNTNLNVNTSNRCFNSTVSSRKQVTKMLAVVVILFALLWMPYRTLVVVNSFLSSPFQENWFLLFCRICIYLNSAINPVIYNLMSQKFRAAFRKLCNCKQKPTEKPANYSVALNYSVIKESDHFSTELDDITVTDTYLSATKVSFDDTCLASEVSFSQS", "test": "FLIPR functional screen", "format": "cell-based", "conditions": "antagonist mode"}, "[36]": {"target": "T36, V1A (Homo sapiens, UniProt P37288)", "T36 construct": "Millipore", "T36 sequence (P37288 whole entry)": "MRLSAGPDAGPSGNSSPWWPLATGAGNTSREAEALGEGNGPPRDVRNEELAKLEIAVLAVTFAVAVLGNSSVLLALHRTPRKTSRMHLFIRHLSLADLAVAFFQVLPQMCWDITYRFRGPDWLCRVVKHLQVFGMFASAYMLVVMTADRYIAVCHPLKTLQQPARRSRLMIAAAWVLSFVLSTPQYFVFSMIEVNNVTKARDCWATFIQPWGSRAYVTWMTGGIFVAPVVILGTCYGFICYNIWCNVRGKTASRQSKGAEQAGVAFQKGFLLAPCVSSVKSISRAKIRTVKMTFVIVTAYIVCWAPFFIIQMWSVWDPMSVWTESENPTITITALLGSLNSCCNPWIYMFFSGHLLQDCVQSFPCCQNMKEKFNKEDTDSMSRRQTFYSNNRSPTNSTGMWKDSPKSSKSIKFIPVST", "test": "FLIPR functional screen", "format": "cell-based", "conditions": "antagonist mode"}, "[37]": {"target": "T37, VPAC2 (Homo sapiens, UniProt P41587)", "T37 construct": "Millipore", "test": "FLIPR functional screen", "format": "cell-based", "conditions": "antagonist mode"}}, "data": [{"smiles": "CCN1C(=O)N2Cc3cc(OC)cc(OC)c3[C@@H](C)C=C2C12CCN(Cc1cccn1C)CC2", "note": "[ER-819924-01]", "values": [{"measurement": "% INHIBITION", "setting": "[1]; CONC. 0.1 μm", "result": 8, "unit": "%"}, {"measurement": "% INHIBITION", "setting": "[1]; CONC. 1 μm", "result": "−5", "unit": "%"}, {"measurement": "% INHIBITION", "setting": "[2]; CONC. 0.1 μm", "result": "−3", "unit": "%"}, {"measurement": "% INHIBITION", "setting": "[2]; CONC. 1 μm", "result": "−14", "unit": "%"}, {"measurement": "inhibition at 1 µM", "setting": "[3]", "result": 3, "unit": "%"}, {"measurement": "inhibition at 1 µM", "setting": "[4]", "result": 6.9, "unit": "%"}, {"measurement": "inhibition at 1 µM", "setting": "[5]", "result": 17.6, "unit": "%"}, {"measurement": "inhibition at 1 µM", "setting": "[6]", "result": -1.5, "unit": "%"}, {"measurement": "inhibition at 1 µM", "setting": "[7]", "result": 2.2, "unit": "%"}, {"measurement": "inhibition at 1 µM", "setting": "[8]", "result": 7.2, "unit": "%"}, {"measurement": "inhibition at 1 µM", "setting": "[9]", "result": -8.2, "unit": "%"}, {"measurement": "inhibition at 1 µM", "setting": "[10]", "result": 2.2, "unit": "%"}, {"measurement": "inhibition at 1 µM", "setting": "[11]", "result": -5.6, "unit": "%"}, {"measurement": "inhibition at 1 µM", "setting": "[12]", "result": 3.9, "unit": "%"}, {"measurement": "inhibition at 1 µM", "setting": "[13]", "result": 34.7, "unit": "%"}, {"measurement": "inhibition at 1 µM", "setting": "[14]", "result": -5.8, "unit": "%"}, {"measurement": "inhibition at 1 µM", "setting": "[15]", "result": 9, "unit": "%"}, {"measurement": "inhibition at 1 µM", "setting": "[16]", "result": 6.2, "unit": "%"}, {"measurement": "inhibition at 1 µM", "setting": "[17]", "result": 14, "unit": "%"}, {"measurement": "inhibition at 1 µM", "setting": "[18]", "result": -14.9, "unit": "%"}, {"measurement": "inhibition at 1 µM", "setting": "[19]", "result": -4.6, "unit": "%"}, {"measurement": "inhibition at 1 µM", "setting": "[20]", "result": -39.3, "unit": "%"}, {"measurement": "inhibition at 1 µM", "setting": "[21]", "result": 1.8, "unit": "%"}, {"measurement": "inhibition at 1 µM", "setting": "[22]", "result": 1.5, "unit": "%"}, {"measurement": "inhibition at 1 µM", "setting": "[23]", "result": 8.9, "unit": "%"}, {"measurement": "inhibition at 1 µM", "setting": "[24]", "result": 2.9, "unit": "%"}, {"measurement": "inhibition at 1 µM", "setting": "[25]", "result": 5.7, "unit": "%"}, {"measurement": "inhibition at 1 µM", "setting": "[26]", "result": 6.2, "unit": "%"}, {"measurement": "inhibition at 1 µM", "setting": "[27]", "result": 4.6, "unit": "%"}, {"measurement": "inhibition at 1 µM", "setting": "[28]", "result": 8.8, "unit": "%"}, {"measurement": "inhibition at 1 µM", "setting": "[29]", "result": -3.8, "unit": "%"}, {"measurement": "inhibition at 1 µM", "setting": "[30]", "result": -0.5, "unit": "%"}, {"measurement": "inhibition at 1 µM", "setting": "[31]", "result": -7.4, "unit": "%"}, {"measurement": "inhibition at 1 µM", "setting": "[32]", "result": 11.3, "unit": "%"}, {"measurement": "inhibition at 1 µM", "setting": "[33]", "result": 0.1, "unit": "%"}, {"measurement": "inhibition at 1 µM", "setting": "[34]", "result": 1.8, "unit": "%"}, {"measurement": "inhibition at 1 µM", "setting": "[35]", "result": -11.1, "unit": "%"}, {"measurement": "inhibition at 1 µM", "setting": "[36]", "result": -3.9, "unit": "%"}, {"measurement": "inhibition at 1 µM", "setting": "[37]", "result": -3.7, "unit": "%"}]}]}
